Laboratory results as given in US10017767B2, “Targets in multiple myeloma and other disorders” (FONDAZIONE CENTRO SAN RAFFAELE, priority 2012, dated 2018).

How the values were obtained:
MM.1S cells = assay: Apoptosis by Annexin V-FITC/PI staining, MM.1S; format: cell-based, human; settings: 10 μM, untreated 11%
Method: (§1) In particular, cells were washed twice with room-temperature PBS, resuspended in 100 μL of Annexin binding buffer, and stained with specific antibodies for 20 minutes.

YAP1 = YAP1 levels in MM cells after treatment; format: cell-based
Method: MM cells were harvested and lysed using lysis buffer: 50 mMTris-HCl (pH 7.4), 150 mM NaCl, 1% NP-40, 5 mM EDTA, 5 mM NaF, 2 mM Na3VO4, 1 mM PMSF, 5 μg/mL leupeptine, and 5 μg/mL aprotinin. Nuclear extracts were prepared using Nuclear Extraction Kit (Panomics). Cell lysates were subjected to sodium dodecyl sulfate-polyacrylamide gel electrophoresis SDS-PAGE, transferred to nitrocellulose membranes, and immunoblotted with different antibodies: ATM, phospho-ATM (Ser1981), ATR, phospho-ATR (Ser428), CHK2, phospho-CHK2 (Thr68), CHK1, phospho-CHK1 (Ser296), p21, p53, phospho-p53 (ser127), STK4, LATS1, phospho-LATS1 (Ser909), phospho-ABL1 (Thr735), cleaved caspase 3, cleaved PARP, histone H3, SAPK/JNK, phospho-SAPK/JNK (Thr183/Tyr185), GM130, GAPDH, and α-tubulin (Cell Signaling); STK4, Nuclear Matrix Protein p84 (Abeam), p73 (BD), phospho-H2A.X (Ser139) (Millipore); as well as ABL1, BAX, Puma, Noxa, actin and nucleolin (Santa Cruz Biotechnology).

[1] = system: leukemia and lymphoma cell lines; assay: MTT growth inhibition and Annexin V-PI apoptosis in a leukemia and lymphoma cell line panel; format: cell-based; settings: cell lines where the DNA damage-ABL1-YAP1 axis was activated
[2] = MTT viability assay, U266; format: cell-based; settings: human, U266 multiple myeloma cells, 10 μM
Method: Viability of MM cells was evaluated by 3-[4,5-dimethylthiazol-2-yl]-2,5-diphenyltetrazolium bromide (MTT) colorimetric survival assay. MM cells (20,000-50,000) were plated in 100 μL medium. At the various time points (24-96 hours), 10 μL 5 mg/mL MTT were added to plated cells. After 4 hour incubation at 37° C., medium was discarded and 100 μL MTT stop solution (Isopropanonol with […] Hcl) used to dissolve MTT metabolic products. Absorbance was read at 570 nm and background was subtracted at 630 nm, using spectrophotometer SPECTRAMAX M2 machine and Softmax Pro v5 software. Cellular growth was estimated by cell counting in triplicates, excluding dead cells stained by trypan blue.

RL = assay: MTT / Annexin V-PI, RL; format: cell-based; settings: no nuclear ABL1
HL-60 = assay: MTT / Annexin V-PI, HL-60; format: cell-based; settings: HL-60, YAP1 basal expression
U266 MM cell line = assay: Apoptosis by Annexin V-FITC/PI staining, U266; format: cell-based; settings: 10 μM, untreated 10%
Method: as §1

[3] = system: KMS-20 cell line, with YAP1 deletion; assay: Cell growth in YAP1-deleted KMS-20; format: cell-based; settings: KMS-20, YAP1 deleted
[4] = system: ALL (Jurkat) and AML (OCI/AML3) cell lines; assay: YAP1 levels, cell number and apoptosis in ALL and AML cell lines; format: cell-based
MM cell lines = assay: Cell growth in a large panel of MM cell lines; format: cell-based
STK4 = biological target: T1, STK4 (Homo sapiens, UniProt Q13043); assay: STK4 biochemical kinase inhibition
T1 sequence (Q13043 1-487): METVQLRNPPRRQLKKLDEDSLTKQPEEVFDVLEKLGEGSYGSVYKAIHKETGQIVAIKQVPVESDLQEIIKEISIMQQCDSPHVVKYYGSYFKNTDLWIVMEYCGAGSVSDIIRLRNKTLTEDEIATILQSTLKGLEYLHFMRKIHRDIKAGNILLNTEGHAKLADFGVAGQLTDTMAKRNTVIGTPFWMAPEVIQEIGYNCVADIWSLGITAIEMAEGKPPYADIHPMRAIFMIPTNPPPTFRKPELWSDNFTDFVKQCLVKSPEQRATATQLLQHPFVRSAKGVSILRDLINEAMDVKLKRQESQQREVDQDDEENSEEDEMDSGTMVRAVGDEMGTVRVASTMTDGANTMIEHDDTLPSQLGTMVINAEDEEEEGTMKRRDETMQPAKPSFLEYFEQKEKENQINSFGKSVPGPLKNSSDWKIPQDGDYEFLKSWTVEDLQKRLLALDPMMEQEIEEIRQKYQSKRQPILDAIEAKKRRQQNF

In the case of COc1cc(Nc2c(C#N)cnc3cc(OCCCN4CCN(C)CC4)c(OC)cc23)c(Cl)cc1Cl [SKI-606], the “apoptosis (Annexin V-FITC/PI)” value (MM.1S cells) is reported as 76%, the “YAP1 expression after treatment” value (YAP1; MM.1S and U266, 10 μM) is reported as “significant increase of YAP1 expression” and the “cellular proliferation and survival” value [1] is reported as “profoundly reduced”. It also gave a viability at 24 h, 10 µM ([2]; 24 h, read-out: 24 hour viability (MTT, normalized to DMSO)) of 93.8%, a viability at 48 h, 10 µM ([2]; 48 h, read-out: 48 hour viability (MTT, normalized to DMSO)) of 76.1% and a viability at 72 h, 10 µM ([2]; 72 h, read-out: 72 hour viability (MTT, normalized to DMSO)) of 53.8%. The viability at 96 h, 10 µM ([2]; 96 h, read-out: 96 hour viability (MTT, normalized to DMSO)) was 28.5%, the response to treatment (RL) was “did not respond to the treatment” and the response to treatment (HL-60) was “did not respond to the treatment”. The “apoptosis (Annexin V-PI)” value (U266 MM cell line) was 58%.

In the case of NS(=O)(=O)c1ccc(N/N=C2\C(=O)Nc3ccc4ncccc4c32)cc1 [GW305178X], the “YAP1 levels after treatment” value (YAP1; MM cells) is reported as “robust increase in YAP1 levels”, the “activity against KMS-20” value [3] is reported as “not active” and the “YAP1 levels, cell number and apoptosis” value [4] is reported as “increased YAP1 levels, reduced cell number, and enhanced apoptosis”. For the same molecule, the “effect on cell growth / proliferation in MM cell lines” value (MM cell lines) was “reduced proliferation in most cell lines with low YAP1 levels” and the IC50 (STK4) was 12 nM.
